# Literature values, collected in US20070298135A1, “TOPICAL HERBAL FORMULATIONS” (BIOBOTANIC CORP., priority 2006, published 2007).
smiles,measurement,setting,value
C[C@@H]1CC[C@@]2(OC1)O[C@H]1C[C@H]3[C@@H]4CC=C5C[C@@H](O[C@@H]6O[C@H](CO)[C@@H](O[C@@H]7O[C@@H](C)[C@H](O)[C@@H](O)[C@H]7O)[C@H](O)[C@H]6O[C@@H]6O[C@@H](C)[C@H](O)[C@@H](O)[C@H]6O)CC[C@]5(C)[C@H]4CC[C@]3(C)[C@H]1[C@@H]2C [Doscin],solubility in lipophilic organic solvent,lipophilic organic solvent,insoluble
same,solubility in polar liquid media,"methanol, ethanol, n-butanol, water, hydrate methanol and ethanol, soluble = at least 0.1 mg/ml (w/v) at about 25° C.",soluble
